Reference: patent US12691129B2, “Use of carotenoids in the treatment of senescence-related diseases” (ALGAKTIV, S.L., priority 2019, dated 2026)
Where two headings read alike, the source gives them in different places.

Experiments:
[1] = tested on: α-SMA in HSC from cirrhotic rats; assay: α-SMA expression in primary HSC from cirrhotic rats (qPCR, western blot); format: cell-based, rat; settings: 10 μM, vs vehicle; for inhibition of α-SMA transcription: quantitative PCR
Experimental: (§1) To evaluate the effect of amarouciaxanthin A on HSC activation, the immortalized human cell line LX2 was used. Additionally, primary HSC were extracted from cirrhotic rats which had been subjected to carbon tetrachloride inhalation. In both cases, cells were cultured for 24 h before adding the compound. After that, either amarouciaxanthin A at 10 μM or the vehicle (DMSO) was added to the culture. Cells were harvested at 24 and 72 h post treatment and were lysed to analyze fibrotic biomarkers. Gene transcription was determined by quantitative PCR at 24 and 72 h and protein expression by western blotting at 72 h. α-smooth muscle actin (α-SMA) was analyzed in rat HSC. Collagen I al (COL1A1), which is the main component of the extracellular matrix, was analyzed in LX2.

COL1A1 in LX2 cells = assay: COL1A1 expression in LX2 cells (qPCR, western blot); format: cell-based, human; settings: 10 μM, vs vehicle; for inhibition of COL1A1 transcription: quantitative PCR
Experimental: as §1

MV-4-11 cells = assay: MTT cytotoxicity assay in MV-4-11 cells; format: cell-based, Human; settings: 6 replicates, read-out: IC50 (μM) (mean ± SD)
Experimental: Human MV-4-11 and PL-21 cell lines were used to evaluate fucoxanthin and amarouciaxanthin A effects in combination with the BCL-2 family inhibitor Navitoclax (ABT-263) and Venetoclax (ABT-199). […] For cytotoxicity determination, MV-4-11 cells and PL-21 cells were plated in 96-well microplates at a density of 10^4 cells/well. After 24 hours, different concentration combinations of Navitoclax or Venetoclax and fucoxanthin or amarouciaxanthin A were added. […] DMSO was used as vehicle control. After this period, 50 μL of SDS 10% were added to the negative control wells (0% viability, 100% mortality). Then, culture media was replaced by fresh media with 10 μL of MTT 5 mg/ml in PBS in each well. […] Next, culture media was removed and 100 μL of extraction buffer (SDS, DSA, acetic acid 2%, pH 4.7) were added to each well. […] Finally, plates were read at 570 nm with the spectrophotometer Multiskan Ascent (MTX Lab systems). The potency of each product was determined through the calculation of IC50 (half maximal inhibitory concentration).

BJ-11 cells = assay: Senescence associated β-galactosidase (SA-β-Gal) staining in BJ-11 cells; format: cell-based, human
Experimental: (§2) BJ-11 cell line (human primary skin fibroblasts) was cultured in MEM supplemented with 10% FCS plus 2 mM L-glutamine. All cells were cultured at 37° C. in a humidified 5% CO2-atmosphere and were consistently free of mycoplasma, as evaluated by PCR. All passages were performed between 80 and 90% of confluence and with viability greater than 90%.
In order to evaluate the effects of fucoxanthin on senescence, 10^4 BJ-11 cells were seeded in 24-well plates. Cultures were incubated with different concentrations of palbociclib (Palbo) or doxorubicin (Doxo), as senescence inductors, and fucoxanthin (Fuco), as described in Table 6.
Doxorubicin treatments were performed only for 24 hours. After that, doxorubicin was removed and cells were cultured in complete culture medium during the periods of time indicated below. On the other hand, palbociclib was constantly present in the culture medium and added fresh periodically.
Two different approaches were followed: • Approach 1: Fucoxanthin effects on senescence prevention
After 7 days, β-galactosidase activity was determined.
After that, treatment with fucoxanthin was performed for 7 days. At the end of this period […] activity was determined.
After treatments, SA-β-galactosidase staining was used for the determination of senescence-associated β-galactosidase expression in BJ-11 cells. β-galactosidase staining was performed based on manufacturer's recommendations (9860S, Cell Signaling Technology). Growth media was removed from the cells and the plate was rinsed once with PBS. Then, fixative solution was added to each well and cells were allowed to fix for 10-15 min at room temperature. The plate was rinsed twice with PBS before adding β-Galactosidase Staining Solution to each well. Finally, the plate was incubated at 37° C. for 24 h in a dry incubator (no CO2) for preventing changes in pH, which may affect staining results. The amount of cells positive in β-galactosidase activity (stained in blue) was evaluated by manual stained-cell counting.

PL-21 cells = assay: MTT cytotoxicity assay in PL-21 cells; format: cell-based, Human; settings: 72 hours, 6 replicates, read-out: IC50 (μM) (mean ± SD)
Experimental: Human MV-4-11 and PL-21 cell lines were used to evaluate fucoxanthin and amarouciaxanthin A effects in combination with the BCL-2 family inhibitor Navitoclax (ABT-263) and Venetoclax (ABT-199). Cells were cultured in RPMI media supplemented with 10% FCS at 37° C. in a humidified 5% CO2-atmosphere, and were consistently free of mycoplasma, as evaluated by PCR. All passages were performed between 80 and 90% of confluence and with viability above 90%.
For cytotoxicity determination, MV-4-11 cells and PL-21 cells were plated in 96-well microplates at a density of 10^4 cells/well. After 24 hours, different concentration combinations of Navitoclax or Venetoclax and fucoxanthin or amarouciaxanthin A were added. Plates were incubated for 72 hours at 37° C. and 5% CO2. DMSO was used as vehicle control. After this period, 50 μL of SDS 10% were added to the negative control wells (0% viability, 100% mortality). Then, culture media was replaced by fresh media with 10 μL of MTT 5 mg/ml in PBS in each well. Plates were incubated for 4 hours at 37° C. and 5% CO2. Next, culture media was removed and 100 μL of extraction buffer (SDS, DSA, acetic acid 2%, pH 4.7) were added to each well. […] Finally, plates were read at 570 nm with the spectrophotometer Multiskan Ascent (MTX Lab systems). The potency of each product was determined through the calculation of IC50 (half maximal inhibitory concentration).

Sk-Mel-103 cells = assay: MTT cytotoxicity of Navitoclax in Sk-Mel-103 cells after palbociclib/fucoxanthin pretreatment; format: cell-based, human; settings: for IC50: 6 replicates, read-out: IC50 of Navitoclax (μM) (mean ± SD)
Experimental: as §2, with “Sk-Mel-103” for “BJ-11”, “(human” for “(human primary”, “melanoma)” for “fibroblasts)”, “DMEM-high glucose” for “MEM”, “FCS.” for “FCS plus 2 mM L-glutamine.”
10^6 Sk-Mel-103 cells were seeded in 24-well plates. Cultures were incubated with palbociclib (Palbo), as a senescence inductor; fucoxanthin; or a combination of them, as described in Table 4. After 7 days, cultures were treated with different concentrations of the BCL2 inhibitor Navitoclax. The cytotoxicity of each condition was determined through the calculation of IC50 (half maximal inhibitory concentration) by an MTT assay.
For cytotoxicity determination, cells were plated in 96-well microplates at a density of 10^4 cells/well. After the initial treatments described above, different concentrations of Navitoclax were added. Plates were then incubated for 72 hours at 37° C. and 5% CO2. DMSO was used as vehicle control. After this period, 50 μL of SDS 10% were added to the negative control wells (0% viability, 100% mortality). Then, culture media was replaced by fresh media with 10 μL of MTT 5 mg/ml in PBS in each well. Plates were incubated for 4 hours at 37° C. and 5% CO2. Next, culture media was removed and 100 μL of extraction buffer (SDS, DSA, acetic acid 2%, pH 4.7) were added to each well. After incubating plates for 1 hour at 37° C. and 5% CO2, cultures were homogenized. Finally, plates were read at 570 nm with the spectrophotometer Multiskan Ascent (MTX Lab systems). The potency of each product was determined through the calculation of IC50 (half maximal inhibitory concentration).

[2] = tested on: IL-1β, IL-6 and IL-8 secretion by SK-Mel-103 cells; assay: Secreted interleukins (ELISA) in senescent SK-Mel-103 cells; format: cell-based, human; settings: fucoxanthin 4 μM, p value<0.01
Experimental: as §2, with “Sk-Mel-103” for “BJ-11”, “(human” for “(human primary”, “melanoma)” for “fibroblasts)”, “DMEM-high glucose” for “MEM”, “FCS.” for “FCS plus 2 mM L-glutamine.”
10^6 Sk-Mel-103 cells were seeded in 24-well plates. Cultures were incubated with palbociclib or doxorubicin, as senescence inductors; fucoxanthin; or a combination of them, as described in Table 9. After treatments, cells and supernatants were collected by centrifugation and stored at −20° C.
Secretion of IL-1β, IL-6 and IL-8 was quantified in the supernatants by commercial ELISA kits (DY201, DY206, DY208, R&D Systems) following manufacturer's instructions. Obtained values were normalized by total cell protein content in each well at the end of the experiment, quantified by Bradford assay (B6916, Sigma-Aldrich). A second normalization was performed by dividing the secreted interleukin after fucoxanthin incubations by its corresponding control of senescent cells.

[3] = senescence induced with doxorubicin 125 nM, vs senescent cells (FIG. 2)
[4] = senescence induced with palbociclib 1 μM, vs senescent cells (FIG. 1)

## CC1=CC(=O)CC(C)(C)[C@@]1(O)CC(=O)/C(C)=C/C=C/C(C)=C/C=C/C=C(C)/C=C/C=C(\C)C=C=C1C(C)(C)C[C@H](O)C[C@@]1(C)O [Amarouciaxanthin A, amarouciaxanthin A]
[1]; 24 h
  inhibition of α-SMA transcription: around 80%
[1]; 72 h
  inhibition of α-SMA transcription: around 80%
[1]; 72 h, western blotting
  reduction of α-SMA expression at the protein level: 95%
COL1A1 in LX2 cells; 24 h
  inhibition of COL1A1 transcription: around 50%
COL1A1 in LX2 cells; 72 h
  inhibition of COL1A1 transcription: around 80%
COL1A1 in LX2 cells; 72 h, western blot
  reduction of collagen expression (protein): around 95%
MV-4-11 cells; 72 hours
  IC50: 1.45 ± 0.27 µM

## COc1cccc2c1C(=O)c1c(O)c3c(c(O)c1C2=O)C[C@@](O)(C(=O)CO)C[C@@H]3O[C@H]1C[C@H](N)[C@H](O)[C@H](C)O1 [Doxorubicin, doxorubicin, reference compound]
BJ-11 cells; Approach 1 (prevention), senescent cells: doxorubicin 25 nM (24 hours) alone, 7 days
  Percentage of cells positive in β-galactosidase activity: >80%
BJ-11 cells; Approach 2 (reversion), senescent cells: doxorubicin 25 nM alone
  Percentage of cells positive in β-galactosidase activity: >80%

## CC1(C)CCC(c2ccc(Cl)cc2)=C(CN2CCN(c3ccc(C(=O)NS(=O)(=O)c4ccc(N[C@H](CCN5CCOCC5)CSc5ccccc5)c(S(=O)(=O)C(F)(F)F)c4)cc3)CC2)C1 [Navitoclax, navitoclax]
PL-21 cells
  IC50: 1.22 ± 0.12 µM
MV-4-11 cells; 72 hours
  IC50: 0.14 ± 0.01 µM
Sk-Mel-103 cells; Sk-Mel-103 control cells (no pretreatment)
  IC50: 8.02 ± 1.31 µM
Sk-Mel-103 cells; Sk-Mel-103 control cells + fucoxanthin 4 μM pretreatment 7 days
  IC50: 4.79 ± 0.911 µM
Sk-Mel-103 cells; Sk-Mel-103 senescent cells (palbociclib 1 μM) + fucoxanthin 4 μM pretreatment 7 days
  IC50: 0.055 ± 0.005 µM
Sk-Mel-103 cells; Sk-Mel-103 senescent cells (palbociclib 1 μM, 7 days)
  IC50: 0.136 ± 0.012 µM

## CC(=O)c1c(C)c2cnc(Nc3ccc(N4CCNCC4)cn3)nc2n(C2CCCC2)c1=O [Palbociclib, palbociclib, reference compound]
BJ-11 cells; Approach 1 (prevention), senescent cells: palbociclib 1 μM alone, 7 days
  Percentage of cells positive in β-galactosidase activity: >98%
BJ-11 cells; Approach 2 (reversion), senescent cells: palbociclib 1 μM alone
  Percentage of cells positive in β-galactosidase activity: >95%

## CC1(C)CCC(c2ccc(Cl)cc2)=C(CN2CCN(c3ccc(C(=O)NS(=O)(=O)c4ccc(NCC5CCOCC5)c([N+](=O)[O-])c4)c(Oc4cnc5[nH]ccc5c4)c3)CC2)C1 [Venetoclax, venetoclax, reference compound]
MV-4-11 cells; Homo sapiens, MV4-11, 72 hours
  IC50: 0.0048 µM

## fucoxanthin
BJ-11 cells; Approach 1 (prevention), fucoxanthin 10 μM simultaneously with doxorubicin 25 nM, 7 days
  Percentage of cells positive in β-galactosidase activity: <5%
BJ-11 cells; Approach 1 (prevention), fucoxanthin 10 μM simultaneously with palbociclib 1 μM, 7 days
  Percentage of cells positive in β-galactosidase activity: <5%
BJ-11 cells; Approach 2 (reversion), doxorubicin 25 nM, 7 days, then fucoxanthin 10 μM for 7 days
  Percentage of cells positive in β-galactosidase activity: <5%
BJ-11 cells; Approach 2 (reversion), palbociclib 1 μM for 7 days, then fucoxanthin 10 μM for 7 days
  Percentage of cells positive in β-galactosidase activity: <5%
BJ-11 cells; BJ-11, doxorubicin or palbociclib induced senescence, prevention and reversion, summary of Tables 7 and 8
  percentage of senescent cells positive in β-galactosidase activity after treatment (in words): reduced
PL-21 cells
  IC50: 10.5 ± 1.55 µM
[2]; [3]
  secretion of IL-1β: significantly decreased
  secretion of IL-6: significantly decreased
  secretion of IL-8: significantly decreased
[2]; [4]
  secretion of IL-1β: significantly decreased
  secretion of IL-6: significantly decreased
  secretion of IL-8: significantly decreased
MV-4-11 cells; 72 hours
  IC50: 1.34 ± 0.07 µM
Sk-Mel-103 cells; Sk-Mel-103, fucoxanthin 4 μM pretreatment 7 days, summary of Table 5
  effect of fucoxanthin pretreatment on senolytic activity of Navitoclax: increased the senolytic activity of Navitoclax
